Reference: patent US11525008B2, “Methods and pharmaceutical compositions for the treatment of lung cancer” (INSERM (INSTITUT NATIONAL DE LA SANTÉ ET DE LA RECHERCHE …, priority 2016, dated 2022)

Tests used:
Type in all cases: cell-based
A549 cell line = assay: matrigel modified Boyden chamber cell invasion assay after FHIT silencing; settings: irbinitinib 10 nM; A549 cells transfected with FHIT siRNA; FIG. 3B
Description: (§1) FIG. 3: Cell invasion induced by FHIT silencing is HER2-dependent.

HBE-4-E6/E7 cell line = assay: as above; settings: irbinitinib 10 nM; HBE-4-E6/E7 cells transfected with FHIT siRNA; FIG. 3A
Description: as §1

A549 spheroids = assay: collagen I gel invasion by spheroids, timelapse videomicroscopy, after FHIT silencing; settings: irbinitinib 15 nM, FHIT siRNA, up to 72h, vs FHIT siRNA+DMSO p=0.0001, FIG. 4
Description: FIG. 4: Collagen I gel invasion by A549 spheroids induced by FHIT silencing is HER2-dependent. […] A. Representative phase-contrast images of spheroids at T0 and T=72h. B. Time course analysis of mean diameter of spheroids.** p<0.01; *** p<0.001.

Cc1cc(Nc2ncnc3ccc(NC4=NC(C)(C)CO4)cc23)ccc1Oc1ccn2ncnc2c1 [irbinitinib, N4-(4-([1,2,4]Triazolo[1,5-a]pyridin-7-yloxy)-3-methylphenyl)-N6-(4,4-dimethyl-4,5-dihydrooxazol-2-yl)quinazoline-4,6-diamine]
cell invasion induced by FHIT silencing (A549 cell line): reduces cell invasion | cell invasion induced by FHIT silencing (HBE-4-E6/E7 cell line): reduces cell invasion | spheroid invasion (tumor cell dispersion into collagen I matrix, mean spheroid diameter) induced by FHIT silencing (A549 spheroids): reduces spheroid invasion
